Measured values from article PMC4099110, “Synthesis and Evaluation of Novel Pyrroles and Pyrrolopyrimidines as Anti-Hyperglycemic Agents” (BioMed Research International, 2014).

SMILES | melting point
Nc1ncnc2c1c(-c1ccccc1)c(-c1ccccc1)n2-c1ccc(Cl)c(Cl)c1 [IIId, 7-(3,4-Dichlorophenyl)-5,6-diphenyl-7H-pyrrolo[2,3-d]pyrimidin-4-amine] | 115 to 118 °C
Cc1nc(Cl)c2c(-c3ccccc3)cn(-c3c(C)n(C)n(-c4ccccc4)c3=O)c2n1 [IVi, 4-(4-Chloro-2-methyl-5-phenyl-7H-pyrrolo[2,3-d]pyrimidin-7-yl)-1,5-dimethyl-2-phenyl-1H-pyrazol-3(2H)-one] | 95 to 100 °C
Clc1ccc(-n2c(-c3ccccc3)c(-c3ccccc3)c3c(Cl)ncnc32)cc1Cl [IVd, 4-Chloro-7-(3,4-dichlorophenyl)-5,6-diphenyl-7H-pyrrolo[2,3-d]pyrimidine] | 124 to 128 °C
Cc1nc(Cl)c2c(-c3ccccc3)c(-c3ccccc3)n(Cc3ccccc3)c2n1 [IVf, 7-Benzyl-4-chloro-2-methyl-5,6-diphenyl-7H-pyrrolo[2,3-d]pyrimidine] | 120 to 124 °C
Cc1nc(Cl)c2c(-c3ccccc3)c(-c3ccccc3)n(-c3ccc(Cl)c(Cl)c3)c2n1 [IVh, 4-Chloro-7-(3,4-dichlorophenyl)-2-methyl-5,6-diphenyl-7H-pyrrolo[2,3-d]pyrimidine] | 108 to 110 °C
O=c1[nH]cnc2c1c(-c1ccccc1)c(-c1ccccc1)n2-c1ccc(Cl)c(Cl)c1 [IId, 7-(3,4-Dichlorophenyl)-5,6-diphenyl-3H-pyrrolo[2,3-d]pyrimidin-4(7H)-one] | 172 to 176 °C
Cc1nc2c(c(-c3ccccc3)cn2-c2c(C)n(C)n(-c3ccccc3)c2=O)c(=O)[nH]1 [IIj, 7-(1,5-Dimethyl-3-oxo-2-phenyl-2,3-dihydro-1H-pyrazol-4-yl)-2-methyl-5-phenyl-3H-pyrrolo[2,3-d]pyrimidin-4(7H)-one] | 225 to 227 °C
N#Cc1c(-c2ccccc2)c(-c2ccccc2)n(-c2ccc(Cl)c(Cl)c2)c1N [Id, 2-Amino-1-(3,4-dichlorophenyl)-4,5-diphenyl-1H-pyrrole-3-carbonitrile] | 118 to 122 °C
Cc1c(-n2cc(-c3ccccc3)c3c(N)nc(=S)[nH]c32)c(=O)n(-c2ccccc2)n1C [IIIj, 4-(4-Amino-5-phenyl-2-thioxo-1H-pyrrolo[2,3-d]pyrimidin-7(2H)-yl)-1,5-dimethyl-2-phenyl-1H-pyrazol-3(2H)-one] | 172 to 174 °C
CC(=O)Nc1c(C#N)c(-c2ccccc2)c(-c2ccccc2)n1-c1ccc(Cl)c(Cl)c1 [In, N-(3-Cyano-1-(3,4-dichlorophenyl)-4,5-diphenyl-1H -pyrrol-2-yl) acetamide] | 135 to 138 °C
Cc1c(-n2cc(-c3ccccc3)c3c(Cl)ncnc32)c(=O)n(-c2ccccc2)n1C [IVe, 4-(4-Chloro-5-phenyl-7H-pyrrolo[2,3-d]pyrimidin-7-yl)-1,5-dimethyl-2-phenyl-1H-pyrazol-3(2H)-one] | 125 to 130 °C
Cc1c(-n2cc(-c3ccccc3)c3c(=O)[nH]cnc32)c(=O)n(-c2ccccc2)n1C [IIe, 7-(1,5-Dimethyl-3-oxo-2-phenyl-2,3-dihydro-1H-pyrazol-4-yl)-5-phenyl-3H-pyrrolo[2,3-d]pyrimidin-4(7H)-one] | 205 to 208 °C
Cc1c(-n2cc(-c3ccccc3)c3c(N)ncnc32)c(=O)n(-c2ccccc2)n1C [IIIe, 4-(4-Amino-5-phenyl-7H-pyrrolo[2,3-d]pyrimidin-7-yl)-1,5-dimethyl-2-phenyl-1H-pyrazol-3(2H)-one] | 152 to 155 °C
CC(=O)Nc1c(C#N)c(-c2ccccc2)cn1-c1c(C)n(C)n(-c2ccccc2)c1=O [Io, N-(3-Cyano-1-(1,5-dimethyl-3-oxo-2-phenyl-2,3-dihydro-1H -pyrazol-4-yl)-4-phenyl-1H -pyrrol-2-yl)acetamide] | 135 to 138 °C
Cc1nc2c(c(-c3ccccc3)c(-c3ccccc3)n2-c2ccc(Cl)c(Cl)c2)c(=O)[nH]1 [IIi, 7-(3,4-Dichlorophenyl)-2-methyl-5,6-diphenyl-3H-pyrrolo[2,3-d]pyrimidin-4(7H)-one] | 200 to 202 °C

The remaining lines, values ahead:

melting point | SMILES
142 to 146 °C | Cc1nc(NN)c2c(-c3ccccc3)c(-c3ccccc3)n(-c3ccc(Cl)c(Cl)c3)c2n1 [Vh, 7-(3,4-Dichlorophenyl)-4-hydrazinyl-2-methyl-5,6-diphenyl-7H-pyrrolo[2,3-d]pyrimidine]
147 to 152 °C | Cc1nc(NN)c2c(-c3ccccc3)c(-c3ccccc3)n(Cc3ccccc3)c2n1 [Vf, 7-Benzyl-4-hydrazinyl-2-methyl-5,6-diphenyl-7H-pyrrolo[2,3-d] pyrimidine]
97 to 100 °C | N#Cc1c(-c2ccccc2)c(-c2ccccc2)n(Cc2ccccc2)c1NN=C1C(N)=NN=C1O [VIIIf, 2-(2-(3-Amino-5-hydroxy-4H-pyrazol-4-ylidene)hydrazinyl)-1-benzyl-4,5-diphenyl-1H-pyrrole-3-carbonitrile]
122 to 126 °C | NNc1ncnc2c1c(-c1ccccc1)c(-c1ccccc1)n2-c1ccc(Cl)c(Cl)c1 [Vd, 7-(3,4-Dichlorophenyl)-4-hydrazinyl-5,6-diphenyl-7H-pyrrolo[2,3-d]pyrimidine]
148 to 150 °C | Cc1nc(NN)c2c(-c3ccccc3)cn(-c3c(C)n(C)n(-c4ccccc4)c3=O)c2n1 [Vi, 4-(4-Hydrazinyl-2-methyl-5-phenyl-7H-pyrrolo[2,3-d]pyrimidin-7-yl)-1,5-dimethyl-2-phenyl-1H-pyrazol-3(2H)-one]
142 to 146 °C | Cc1c(-n2cc(-c3ccccc3)c3c(NN)ncnc32)c(=O)n(-c2ccccc2)n1C [Ve, 4-(4-Hydrazinyl-5-phenyl-7H-pyrrolo[2,3-d]pyrimidin-7-yl)-1,5-dimethyl-2-phenyl-1H-pyrazol-3(2H)-one]
142 to 166 °C | Cc1c(-n2cc(-c3ccccc3)c3c(=S)[nH]cnc32)c(=O)n(-c2ccccc2)n1C [VIe, 1,5-Dimethyl-2-phenyl-4-(5-phenyl-4-thioxo-3H-pyrrolo[2,3-d]pyrimidin-7(4H)-yl)-1H-pyrazol-3(2H)-one]
165 to 167 °C | Cc1nc2c(c(-c3ccccc3)c(-c3ccccc3)n2Cc2ccccc2)c(=S)[nH]1 [VIf, 7-Benzyl-2-methyl-5,6-diphenyl-3H-pyrrolo[2,3-d]pyrimidine-4(7H)-thione]
135 to 138 °C | Cc1c(-n2cc(-c3ccccc3)c(C#N)c2NN=C2C(N)=NN=C2N)c(=O)n(-c2ccccc2)n1C [VIIIe, 2-(2-(3,5-Diamino-4H-pyrazol-4-ylidene)hydrazinyl)-1-(1,5-dimethyl-3-oxo-2-phenyl-2,3-dihydro-1H-pyrazol-4-yl)-4-phenyl-1H-pyrrole-3-carbonitrile]
120 to 124 °C | N#Cc1c(-c2ccccc2)c(-c2ccccc2)n(-c2ccc(Cl)c(Cl)c2)c1NN=C1C(N)=NN=C1N [VIIId, 2-(2-(3,5-Diamino-4H-pyrazol-4-ylidene)hydrazinyl)-1-(3,4-dichlorophenyl)-4,5-diphenyl-1H-pyrrole-3-carbonitrile]
125 to 130 °C | CCOC(=O)C(C#N)=NNc1c(C#N)c(-c2ccccc2)c(-c2ccccc2)n1Cc1ccccc1 [VIIf, Ethyl 2-(2-(1-Benzyl-3-cyano-4,5-diphenyl-1H-pyrrol-2-yl)hydrazono)-2-cyano-acetate]
142 to 166 °C | S=c1[nH]cnc2c1c(-c1ccccc1)c(-c1ccccc1)n2-c1ccc(Cl)c(Cl)c1 [VId, 7-(3,4-Dichlorophenyl)-5,6-diphenyl-3H-pyrrolo[2,3-d]pyrimidine-4(7H)-thione]
